Test [1] has as its system IL-17 production in mouse splenocytes. As to the kind of experiment: Suppressive effect on IL-17 production by IL-23 stimulation in mouse splenocytes. It is filed as cell-based. Particulars: Splenocyte, 72 h, at 5 μmol/L of the test compound, 10 ng/mL human IL-23, 3 days, read-out: IL-17 production inhibition rate (%). On the procedure: Using mouse splenocytes, the suppressive effect of the cyclic amine derivative (I) or a pharmacologically acceptable salt thereof on IL-17 production by IL-23 stimulation was evaluated by a partially modified method mentioned in The Journal of Biological Chemistry, 2003, Vol. 278, No. 3, p. 1910-1914.
A single cell suspension was prepared from the spleen of C57BL/6J mice (male, 7 to 23 weeks old) (Charles River Laboratories Japan, Inc.) and splenocytes were prepared using Histopaque-1083 (Sigma-Aldrich Japan). The culture medium was used by adding 10% FBS (Gibco), 50 U/mL of penicillin 50 μg/mL of streptomycin (Gibco), 50 μmol/L of 2-mercaptoethanol (Gibco), and 100 U/mL of human IL-2 (Cell Science & Technology Institute, Inc.) to RPMI1640 medium (Gibco). The test compound was dissolved in DMSO and then diluted with the culture medium to have a final concentration of DMSO of 0.1% before use. Splenocytes (3×10^5 cells/well) prepared in the culture medium were seeded in wells of a 96-well flat-bottom plate (Corning Incorporated), the test compound and 10 ng/mL of human IL-23 (R & D systems, Inc.) were added thereto, and the cells were cultured at 37° C. under 5% CO2 for 3 days. A well without addition of human IL-23 and without addition of the test compound and a well with addition of human IL-23 and without addition of the test compound were prepared. After completion of the culture, the culture supernatant was collected and the IL-17 production amount in the supernatant was determined by ELISA method (R & D systems, Inc.).
The IL-17 production inhibition rate (%) was calculated from Formula 2. IL-17 production inhibition rate(%)=(1−((IL-17 production amount with addition of IL-23 and with addition of the test compound)−(IL-17 production amount without addition of IL-23 and without addition of the test compound))/((IL-17 production amount with addition of IL-23 and without addition of the test compound)−(IL-17 production amount without addition of IL-23 and without addition of the test compound)))×100 Formula 2

In test [2] the target is T1, ligand-binding domain of RORγ (RORγ-LBD) (Homo sapiens, UniProt P51449).
T1 construct: purchased Invitrogen
T1 sequence (P51449 269-508 limits assumed): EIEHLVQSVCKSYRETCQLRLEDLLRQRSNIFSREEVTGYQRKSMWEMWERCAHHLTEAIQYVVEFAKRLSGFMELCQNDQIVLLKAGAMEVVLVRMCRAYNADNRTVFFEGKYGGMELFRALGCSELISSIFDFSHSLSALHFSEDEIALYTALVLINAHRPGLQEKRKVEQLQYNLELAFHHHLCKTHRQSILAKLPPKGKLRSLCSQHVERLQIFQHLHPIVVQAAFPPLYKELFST
The test is described as follows: Inhibitory effect on RORγ-coactivator binding (LanthaScreen TR-FRET RORγ Coactivator Assay). Conditions: at 33 μmol/L of the test compound; read-out: RORγ-coactivator binding inhibition rate (%). On the procedure:
The inhibitory effect of the cyclic amine derivative (I) or a pharmacologically acceptable salt thereof on the binding between a ligand-binding domain of RORγ (hereinafter referred to as RORγ-LBD) and a coactivator was evaluated using Invitrogen's LanthaScreen™TR-FRET Retinoid-Related Orphan Receptor (ROR) gamma Coactivator Assay kit utilizing time-resolved fluorescence energy transfer (TR-FRET).
The test compound was dissolved in DMSO and diluted with TR-FRET Coregulator Buffer D (Invitrogen) containing 5 mmol/L of DTT to have a final DMSO concentration of 1% before use. To each well of a 384-well black plate (Corning Inc.), 4 nmol/L of GST-fused RORγ-LBD (Invitrogen) diluted with the buffer mentioned above and the test compound were added. A well without addition of the test compound and without addition of GST-fused RORγ-LBD (background) and a well without addition of the test compound and with addition of GST-fused RORγ-LBD (control) were prepared. Next, 150 nmol/L of fluorescein-labeled TRAP220/DRIP-2 (Invitrogen) diluted with the buffer mentioned above and 32 nmol/L of terbium-labeled anti-GST antibody (Invitrogen) were added to each well. After incubating the plate at room temperature for 16 to 24 hours, the fluorescence at 495 nm and 520 nm when excited at 320 nm was measured for each well and the ratio (fluorescence value at 520 nm/fluorescence value at 495 nm) was calculated.
The fold change with addition of the test compound (ratio with addition of the test compound/ratio of the background), the fold change of the control (ratio of the control/ratio of the background), and the fold change of the background (ratio of the background/ratio of the background) were calculated, and then the inhibition rate of binding between RORγ-LBD and a coactivator (hereinafter referred to as RORγ-coactivator binding inhibition rate) (%) was calculated from Formula 1: RORγ-coactivator binding inhibition rate(%)=(1−((Fold change with addition of the test compound)−(Fold change of the background))/((Fold change of the control)−(Fold change of the background)))×100 Formula 1
(In general: Time-resolved FRET reads energy transfer from a long-lived donor to a nearby acceptor.)

Experimental findings from patent US10364222B2, “Cyclic amine derivative and medical use thereof” (Toray Industries, Inc., priority 2016, dated 2019) are described below.

As usually defined, the inhibition is the drop in the measured response relative to a control, in per cent. Take `CS(=O)(=O)N1CCCC[C@@H]1C(=O)Nc1ccc(-c2ccccc2OC(F)(F)F)c(Cl)c1` [Example 21, (R)-N-(2-chloro-2′-(trifluoromethoxy)-[1,1′-biphenyl]-4-yl)-1-(methylsulfonyl)piperidine-2-carboxamide]: the inhibition at 5 µM in test [1] worked out at 99.8%. In addition, the inhibition at 33 µM in test [2] was determined as 98.2%.
In the same order, the values of `CN(CCC(=O)N1CCCCC1C(=O)Nc1ccc(-c2ccccc2OC(F)(F)F)c(Cl)c1)S(C)(=O)=O` (stereo not drawn) [Example 36, N-(2-chloro-2′-(trifluoromethoxy)-[1,1′-biphenyl]-4-yl)-1-(3-(N-methylmethylsulfonamide)propanoyl)piperidine-2-carboxamide] are 96.9% and 97.2%.
The matching figures for `O=C(Nc1ccc(-c2ccccc2OC(F)(F)F)c(Cl)c1)C1CCCCN1C(=O)Cn1cnnn1` (stereo not drawn) [Example 53, 1-(2-(1H-tetrazol-1-yl)acetyl)-N-(2-chloro-2′-(trifluoromethoxy)-[1,1′-biphenyl]-4-yl)piperidine-2-carboxamide]: 102% and 105%.
The matching figures for `O=C(Nc1ccc(-c2ccccc2OC(F)(F)F)c(Cl)c1)[C@H]1CCCCN1C(=O)Cn1ccnc1` [Example 65, (R)-1-(2-(1H-imidazol-1-yl)acetyl)-N-(2-chloro-2′-(trifluoromethoxy)-[1,1′-biphenyl]-4-yl)piperidine-2-carboxamide]: 99.6% and 91.7%.
For the compound `CS(=O)(=O)CCC(=O)N1CCCCC1C(=O)Nc1ccc(-c2ccccc2OC(F)(F)F)c(Cl)c1` (stereo not drawn) [Example 40, N-(2-chloro-2′-(trifluoromethoxy)-[1,1′-biphenyl]-4-yl)-1-(3-(methylsulfonyl)propanoyl)piperidine-2-carboxamide], the inhibition at 5 µM in test [1] worked out at 98.2%. The inhibition at 33 µM in test [2] worked out at 98.7%.
Consider `O=C(Nc1ccc(-c2ccccc2OC(F)(F)F)c(Cl)c1)C1CCCCN1C(=O)CO` (stereo not drawn) [Example 5, N-(2-chloro-2′-(trifluoromethoxy)-[1,1′-biphenyl]-4-yl)-1-(2-hydroxyacetyl)piperidine-2-carboxamide], for which the inhibition at 5 µM in test [1] came to 99.5%. Besides, in test [2], the inhibition at 33 µM was 96.9%.
The matching figures for `O=C(Nc1ccc(-c2ccccc2OC(F)(F)F)c(Cl)c1)[C@H]1CCCCN1C(=O)CCn1cnnn1` [Example 58, (R)-1-(3-(1H-tetrazol-1-yl)propanoyl)-N-(2-chloro-2′-(trifluoromethoxy)-[1,1′-biphenyl]-4-yl)piperidine-2-carboxamide]: 99.7% and 100%.
Take `CC(C)Oc1ccccc1-c1ccc(NC(=O)C2CCCCN2C(=O)CN(C)S(C)(=O)=O)cc1Cl` (stereo not drawn) [Example 49, N-(2-chloro-2′-isopropoxy-[1,1′-biphenyl]-4-yl)-1-(2-(N-methylmethylsulfonamide)acetyl)piperidine-2-carboxamide]: in test [1], the inhibition at 5 µM was 98.3%. Also, the inhibition at 33 µM in test [2] was found to be 99.3%.
In the same order, the values of `Cn1cc(C(=O)N2CCCCC2C(=O)Nc2ccc(-c3ccccc3OC(F)(F)F)c(Cl)c2)cn1` (stereo not drawn) [Example 46, N-(2-chloro-2′-(trifluoromethoxy)-[1,1′-biphenyl]-4-yl)-1-(1-methyl-1H-pyrazole-4-carbonyl)piperidine-2-carboxamide] are 99.2% and 99.3%.
The matching figures for `CN(CC(=O)N1CCCCC1C(=O)Nc1ccc(-c2ccccc2OC(F)(F)F)c(F)c1)S(C)(=O)=O` (stereo not drawn) [Example 51, N-(2-fluoro-2′-(trifluoromethoxy)-[1,1′-biphenyl]-4-yl)-1-(2-(N-methylmethylsulfonamide)acetyl)piperidine-2-carboxamide]: 98.6% and 100%.
For `COC(=O)CCC(=O)N1CCCCC1C(=O)Nc1ccc(-c2ccccc2OC(F)(F)F)c(Cl)c1` (stereo not drawn) [Example 44, methyl 4-(2-((2-chloro-2′-(trifluoromethoxy)-[1,1′-biphenyl]-4-yl)carbamoyl)piperidin-1-yl)-4-oxobutanoate], the inhibition at 5 µM in test [1] was 91.5%. Further, the inhibition at 33 µM in test [2] turned out to be 97.1%.
With `NC(=O)N1CCCCC1C(=O)Nc1ccc(-c2ccccc2OC(F)(F)F)c(Cl)c1` (stereo not drawn) [Example 17, N^2-(2-chloro-2′-(trifluoromethoxy)-[1,1′-biphenyl]-4-yl)piperidine-1,2-dicarboxamide], the inhibition at 5 µM in test [1] stood at 91.8%. For the same compound, the inhibition at 33 µM in test [2] was 93.8%.
The matching figures for `O=C(Nc1ccc(-c2ccccc2OC(F)(F)F)c(Cl)c1)[C@H]1CCCCN1C(=O)Cn1cccn1` [Example 61, (R)-1-(2-(1H-pyrazol-1-yl)acetyl)-N-(2-chloro-2′-(trifluoromethoxy)-[1,1′-biphenyl]-4-yl)piperidine-2-carboxamide]: 98.8% and 102%.
In the same order, the values of `O=C(Nc1ccc(-c2ccccc2OC(F)(F)F)c(Cl)c1)C1CCCCN1C(=O)c1cn[nH]c1` (stereo not drawn) [Example 48, N-(2-chloro-2′-(trifluoromethoxy)-[1,1′-biphenyl]-4-yl)-1-(1H-pyrazole-4-carbonyl)piperidine-2-carboxamide] are 99.4% and 102%.
The matching figures for `CSCCC(=O)N1CCCCC1C(=O)Nc1ccc(-c2ccccc2OC(F)(F)F)c(Cl)c1` (stereo not drawn) [Example 39, N-(2-chloro-2′-(trifluoromethoxy)-[1,1′-biphenyl]-4-yl)-1-(3-(methylthio)propanoyl)piperidine-2-carboxamide]: 99.2% and 98.8%.
As for `Cc1nnc(CC(=O)N2CCCC[C@@H]2C(=O)Nc2ccc(-c3ccccc3OC(F)(F)F)c(Cl)c2)o1` [Example 67, (R)-N-(2-chloro-2′-(trifluoromethoxy)-[1,1′-biphenyl]-4-yl)-1-(2-(5-methyl-1,3,4-oxadiazol-2-yl)acetyl)piperidine-2-carboxamide], the inhibition at 5 µM in test [1] is 98.7%. The inhibition at 33 µM in test [2] was 99.1%.
In the same order, the values of `O=C(Nc1ccc(-c2ccccc2OC(F)(F)F)c(Cl)c1)C1CCCCN1C(=O)Cn1ccnc1` (stereo not drawn) [Example 52, 1-(2-(1H-imidazol-1-yl)acetyl)-N-(2-chloro-2′-(trifluoromethoxy)-[1,1′-biphenyl]-4-yl)piperidine-2-carboxamide] are 99.3% and 97.3%.
The matching figures for `Cc1ccn(CCC(=O)N2CCCC[C@@H]2C(=O)Nc2ccc(-c3ccccc3OC(F)(F)F)c(Cl)c2)n1` [Example 60, (R)-1-(3-(3-methyl-1H-pyrazol-1-yl)propanoyl)-N-(2-chloro-2′-(trifluoromethoxy)-[1,1′-biphenyl]-4-yl)piperidine-2-carboxamide]: 99.7% and 93.6%.
